Results: paper PMC4801399, “Impact of a CXCL12/CXCR4 Antagonist in Bleomycin (BLM) Induced Pulmonary Fibrosis and Carbon Tetrachloride (CCl4) Induced Hepatic Fibrosis in Mice” (PLoS ONE, 2016)
Where two headings read alike, the source gives them in different places.

Assays:
[1] = AMD070 PK study via PO: plasma and lung concentration; assay type: in vivo, CD-1 mice
Protocol: (§1) At each endpoint, mice were euthanized with CO2 and blood collected via cardiac puncture. An aliquot was set aside at room temperature for hematology measurements with remaining blood processed for plasma for drug concentration determination. Lungs were collected and immediately frozen on dry ice and stored at -70°C until determination of drug concentration. AMD070 concentrations in mouse plasma were determined using protein precipitation extraction followed by UPLC-MS/MS analysis. Briefly, 100 μL aliquots of plasma were transferred to individual wells of an Isolute PPT+ (Biotage) array plate containing 300 μL of 0.1% formic acid (FA) in acetonitrile (ACN). […] The sample residue was then reconstituted into 200 μL of 0.1/5/95 FA/ACN/H2O (v/v/v) and analyzed using reverse phase chromatography (gradient elution) combined with multiple reaction monitoring acquisition (MRM). The mobile phases consisted of 0.1% FA in H2O and 0.1% FA in ACN. AMD070 was extracted from lung and liver tissue by homogenization under basic conditions followed by liquid-liquid extraction in tert-butyl methyl ether (TBME) and ethyl acetate respectively. In summary, 50 mg of lung or liver tissue pieces were cut, weighed, and transferred to homogenization tubes. 25 μL of deionized water for lung and 10 μL for liver were added to each tube, followed by the addition of zirconium (Zr) homogenization beads. The samples were homogenized for approximately 20 seconds in the BeadBeater, followed by 1 minute of centrifugation at room temperature at 13,520 rcf. 200 μL of 1 N NaOH was then transferred to each tube, followed by a second homogenization/centrifugation cycle as described above. […] The dried residue was reconstituted into 0.1/5/95 TFA/ACN/H2O and analyzed using reverse phase chromatography (gradient elution) combined with MRM acquisition in positive electrospray mode (ES+). The mobile phases consisted of 0.1% TFA in H2O and 0.1% TFA in ACN.

[2] = tested on: leukocyte mobilization (blood cell counts); test: Hematology measurements after IP administration (leukocyte mobilization); assay type: in vivo, C57BL/6 mice; conditions: IP 400 μg/mouse
Protocol: (§2) At each endpoint, animals were euthanized with CO2 and blood collected via cardiac puncture. An aliquot was set aside at room temperature for hematology measurements with remaining blood processed for plasma for drug concentration determination. Lungs and livers were also collected and immediately frozen on dry ice and stored at -70°C until determination of drug concentration.

[3] = tested on: leukocyte mobilization (blood cell counts); test: Hematology measurements after SC administration; assay type: in vivo, C57BL/6 mice; conditions: SC 400 μg/mouse; data not shown
Protocol: Non fasted C57BL/6 mice at 7 to 8 weeks of age from Harlan were sacrificed at 0.5, 1, 3, 24 and 48 hours (n = 3/time point) post administration of AMD070 (in 30 mM acetate buffer, pH 5) (400 μg/mouse). All preceding procedures were same as those for AMD070 PK studies via IP injections.

CXCR4 = tested on: CXCR4; parameters: method as in PMID 20297846; conditions: cited from earlier work
[4] = AMD070 PK study via SC injection: plasma, lung and liver concentration; assay type: in vivo, C57BL/6 mice; conditions: SC 400 μg/mouse; for Kp: C57BL/6, read-out: Tissue AUC/Plasma AUC
Protocol: as §1, with “All preceding procedures” for “At each endpoint, mice”, “same as those for AMD070 PK studies” for “euthanized with CO2 and blood collected”, “IP injections.” for “cardiac puncture. An aliquot was set aside at room temperature for hematology measurements with remaining blood processed for plasma for drug concentration determination. Lungs were collected and immediately frozen on dry ice and stored at -70°C until determination of drug concentration.”

[5] = tested on: mobilization of bone marrow hematopoietic progenitors; parameters: method as in PMID 17452489; conditions: human subjects; cited from earlier work
[6] = tested on: leukocyte mobilization (blood cell counts); test: Hematology measurements after PO administration (leukocyte mobilization); assay type: in vivo, CD-1 mice
Protocol: as §2, with “mice” for “animals”, “Lungs” for “Lungs and livers”, “were” for “were also”

NCCCCN(Cc1nc2ccccc2[nH]1)[C@H]1CCCc2cccnc21 [AMD070]
drug levels in the lungs ([1]; PO 200 μg/animal): detectable but not quantifiable | lung Cmax ([1]; PO 400 μg/animal): 267 ng/g | time of lung Cmax after PO ([1]; PO 400 μg/animal): 6 h | plasma concentrations of drug ([1]; PO 200 or 400 μg/animal, data not shown): very low | time lung concentration above IC50 and EC90 ([1]; of the 24 hours after dosing, PO 400 μg/animal, WinNonlin analysis): at least 21 hours | RBC levels [2]: unaffected | Tmax of WBC increase [2]: 3 h | WBC counts [2]: significant but transient increase | lymphocytes (WBC differential) [2]: increased | neutrophils (WBC differential) [2]: increased | platelet levels [2]: unaffected | blood cell count changes compared with IP [3]: magnitude of these changes were lower | protein binding adjusted effective concentration (EC90) (CXCR4; 90% effectiveness): 44 ng/mL | IC50 (CXCR4): 13 nM | Cmax ([4]; C57BL/6, 400 ug, Liver): 5760 ng/g | Tmax ([4]; C57BL/6, 400 ug, Liver): 30 min | Cmax ([4]; C57BL/6, 400 ug, Lung): 5650 ng/g | Tmax ([4]; C57BL/6, 400 ug, Lung): 60 min | Cmax ([4]; C57BL/6, 400 ug, Plasma): 700 ng/mL | Tmax ([4]; C57BL/6, 400 ug, Plasma): 30 min | AUC ([4]; C57BL/6, 400 ug, Plasma, read-out: AUC (all time points)): 970 ng·h/mL | Kp ([4]; Liver): 79.7 | Kp ([4]; Lung): 83.3 | time of peak mobilization of bone marrow hematopoietic progenitors post dosing [5]: two to three | Tmax of WBC increase ([6]; PO 200 μg/mouse): 3 h | WBC counts ([6]; PO 200 μg/mouse): significant, transient increase | WBC counts ([6]; PO 400 μg/mouse): increased and remained elevated for the full 24 hours | eosinophils (WBC differential) ([6]; PO 200 or 400 μg/mouse): no increases | lymphocytes (WBC differential) ([6]; PO 200 or 400 μg/mouse): increased | monocytes (WBC differential) ([6]; PO 200 or 400 μg/mouse): no increases | neutrophils (WBC differential) ([6]; PO 200 or 400 μg/mouse): no increases | platelet counts ([6]; PO 200 or 400 μg/mouse): did not change | red blood cell (RBC) counts ([6]; PO 200 or 400 μg/mouse): did not change
